In assay [1] the test system is Bloodstream form T. b. brucei (Lister 427). Briefly: Trypanosoma brucei brucei Alamar Blue assay. Type of assay: cell-based. As for the experimental part: IC50 values against trypanosomes were determined by Alamar Blue assay. […] After this time, 20 μL of resazurin dye (Sigma–Aldrich) solution at 0.49 mM was added. […] Output was plotted using the IC50 determination algorithm of Prism 5.0 software (GraphPad). Three independent experiments were carried out in duplicate for each compound.
In general terms: The colour change of resazurin is a common sign of viable cells or microbes.

Assay [2] relates to HEK 293 cells. In words: HEK 293 cytotoxicity assay (AlamarBlue viability). Type of assay: cell-based, human. The note with it: for SI (selectivity index): HEK 293 IC50 taken as 20 μM (10 μM estimated for compound 21) versus T. b. brucei IC50. As for the experimental part:
Compounds were tested in an AlamarBlue viability assay using fluorescent intensity as the output. Briefly, Human Embryonic Kidney cells (HEK 293) were cultured in DMEM (Dulbeccos Modified Eagle Medium) plus 10% Foetal Bovine Serum (FBS) in a humidified environment at 37 °C and 5% CO2. Cells were harvested at 80% confluence and plated into 384-well tissue culture treated black walled clear base plates at 2000 cells per well in a volume of 45 μl and incubated overnight to equilibrate. Five μl of compounds in serial dilution format, including Puromycin as a positive control and 0.4% DMSO as the negative control, were transferred into the plates containing the equilibrated HEK293 cells. The plates were incubated for a further 72 h before “flicking” the compound containing media out and replacing with 40 μL of 10% AlamarBlue® in DMEM without FBS. The assay plates were returned to the incubator for 6 h then the total fluorescent intensity determined at 535 nm excitation and 585 nm emission using the Perkin Elmer ENVISION 2101 Multilabel Reader. Fluorescent intensity values were normalized as percent inhibition in relation to the positive and negative controls of 5 μM Puromycin and 0.4% DMSO, respectively. The compounds were tested in two separate experiments each in duplicate point.

In assay [3] the test system is kinetoplast of trypanosome. On the set-up: method as in PMID 16723581. The note with it: cited from earlier work.
Assay [4] deals with T. b. brucei. In words: Fluorescence microscopy, intracellular localisation in T. b. brucei. It is filed as cell-based, Trypanosoma brucei brucei. The note with it: 50 μM, 2 h, FITC and DsRed filters. As for the experimental part:
Fig. 6 Intracellular localisation of fluorescent MGB in T. b. brucei. Trypanosomes were treated for 2 h with 50 μM of MGB and viewed at 100 × magnification. N = nucleus; K = kinetoplast; arrow = other organelles. Bar = 10 μm.
T. b. brucei parasites (1 × 10^7 cell/mL) were treated with 50 μM of compound 32 for 2 h at 37 °C in a humidified, 5% CO2 atmosphere. After washing in PBS, an aliquot of cells was mixed with an equal volume of 2% w/v low melting point agarose (Sigma–Aldrich) and spread onto a slide by addition of a coverslip. Slides were viewed using a Zeiss Axioplan 2 Imaging epifluorescence microscope, equipped with a digital CCD camera (Hammatsu Photonics) and a Plan[…] 100 × oil-immersion NA 1.4 objective (Carl Zeiss). FITC (excitation 450–490 nm, beamsplitter 510 nm, emission 515–565 nm) and DsRed (excitation 545/25 nm, beamsplitter 570 nm, emission 605/70 nm) filter sets were used, and images acquired using Volocity imaging software (Improvision).

[5] abbreviates: Trypanosoma brucei, Table 1, Alamar Blue, 48 h + 24 h, all standard deviations less than 2%, read-out: IC50 against Trypanosoma brucei brucei.
Where [6] appears, read: Trypanosoma brucei, Table 2, read-out: Trypanosoma brucei brucei IC50.
[7] abbreviates: Trypanosoma brucei, values given in nM, read-out: IC50 against T. b. brucei.

These results are taken from paper PMC4872591, “An evaluation of Minor Groove Binders as anti-Trypanosoma brucei brucei therapeutics” (European Journal of Medicinal Chemistry, 2016).

Read-outs that look alike come from different tables or passages of the source. Marks after values point to notes of the source that are not given here. Where only a bound is given, the exact number is not on record here.

A word on the IC50: it is the midpoint of a concentration-inhibition curve. As usually defined, the inhibition is the drop in the measured response relative to a control, in per cent. A higher inhibition goes with strong suppression.

With `Cn1cc(NC(=O)c2cc(NC(=O)c3ccc(/C=C/c4ccc5nsnc5c4)cc3)cn2C)cc1C(=O)NCCN1CCOCC1` [Compound 28, 4-({4-[(E)-2-(2,1,3-benzothiadiazol-5-yl)ethenyl]benzoyl}amino)-1-methyl-N-[1-methyl-5-({[2-(4-morpholinyl)ethyl]amino}carbonyl)-1H-pyrrol-3-yl]-1H-pyrrole-2-carboxamide], the figures for the IC50 in assay [1] (setting [5]), in assay [1] (setting [6]) and in assay [1] (setting [7]) were 7.3 nM, 7.3 nM and below 40 nM, respectively. The “% HEK 293 Inhibition at 20 μM” value in assay [2] (20 μM, 72 h, HEK 293) is on record as “N/A (N/A is an IC50 value > 20 μM)”. Further, the “SI (selectivity index)” value in assay [2] is reported as above 2739.

Consider `CC(C)CCc1sc(NC(=O)c2cc(NC(=O)c3ccc(/C=C/c4ccc5ccccc5c4)cc3)cn2C)nc1C(=O)NCCN1CCOCC1` [Compound 20, 5-isopentyl-2-({[1-methyl-4-({4-[(E)-2-(2-naphthyl)ethenyl]benzoyl}amino)-1H-pyrrol-2-yl]carbonyl}amino)-N-[2-(4-morpholinyl)ethyl]-1,3-thiazole-4-carboxamide], for which the IC50 is 40 nM in assay [1] (setting [5]), 40 nM in assay [1] (setting [6]) and below 40 nM in assay [1] (setting [7]). For the same compound, the “% HEK 293 Inhibition at 20 μM” value in assay [2] (20 μM, 72 h, HEK 293) is on record as “N/A (N/A is an IC50 value > 20 μM)”. Besides, in assay [2], the “SI (selectivity index)” value is above 500.

For the compound `N=C(N)c1ccc(OCCCCCOc2ccc(C(=N)N)cc2)cc1` [pentamidine], the “exposure time to destruction of the kinetoplast” value in assay [3] is at most 24 h.

`CC(C)CCc1sc(NC(=O)c2cc(NC(=O)c3cc(/C=C/c4ccc([N+](=O)[O-])cc4)cn3C)cn2C)nc1C(=O)NCCN1CCOCC1` [Compound 21, 5-isopentyl-2-[({1-methyl-4-[({1-methyl-4-[(E)-2-(4-nitrophenyl)ethenyl]-1H-pyrrol-2-yl}carbonyl)amino]-1H-pyrrol-2-yl}carbonyl)amino]-N-[2-(4-morpholinyl)ethyl]-1,3-thiazole-4-carboxamide]: the IC50 in assay [1] (setting [5]) was 5.4 nM; in assay [1] (setting [6]) it was 5.4 nM; in assay [1] (setting [7]), below 40 nM; in assay [2] (Homo sapiens, HEK293, read-out: estimated IC50 against HEK 293 cells), around 10000 nM. Besides, in assay [2], the “SI (selectivity index)” value is on record as >1851*. In assay [2] (Homo sapiens, HEK293, 20 μM, 72 h, HEK 293), this compound came in with an inhibition at 20 µM of 54%.

As to `N=C(N)c1ccc(-c2ccc(-c3ccc(C(=N)N)cc3)o2)cc1` [Furamidine, furamidine], the “exposure time to destruction of the kinetoplast” value in assay [3] is given as at most 24 h.

With `Cn1cc(NC(=O)c2cc(NC(=O)c3cc(NC(=O)c4cc5ccccc5cn4)cn3C)cn2C)cc1C(=O)NCCCN1CCOCC1` [Compound 8, N-[1-Methyl-5-({[1-methyl-5-({[1-methyl-5-({[3-(4-morpholinyl)propyl]amino}carbonyl)-1H-pyrrol-3-yl]amino}carbonyl)-1H-pyrrol-3-yl]amino}carbonyl)-1H-pyrrol-3-yl]-3-isoquinolinecarboxamide], the IC50 in assay [1] (setting [5]) is 6.8 nM; in assay [1] (setting [6]) it was 6.8 nM; in assay [1] (setting [7]), below 40 nM. For the same compound, the “% HEK 293 Inhibition at 20 μM” value in assay [2] (20 μM, 72 h, HEK 293) is given as “N/A (N/A is an IC50 value > 20 μM)”. Moreover, in assay [2], the “SI (selectivity index)” value was above 2941.

With `COc1ccc(C[C@H](N)C(=O)N[C@H]2[C@@H](O)[C@H](n3cnc4c(N(C)C)ncnc43)O[C@@H]2CO)cc1` [Puromycin, reference compound], the IC50 in assay [2] (Homo sapiens, HEK293, positive control, two separate independent experiments, read-out: IC50 against HEK 293 cells) is 350 nM.

In the case of `Cn1cc(NC(=O)c2cc(NC(=O)c3ccc(/C=C/c4ccc5nonc5c4)cc3)cn2C)cc1C(=O)NCCN1CCOCC1` [Compound 29, 4-({4-[(E)-2-(2,1,3-benzoxadiazol-5-yl)ethenyl]benzoyl}amino)-1-methyl-N-[1-methyl-5-({[2-(4-morpholinyl)ethyl]amino}carbonyl)-1H-pyrrol-3-yl]-1H-pyrrole-2-carboxamide], the IC50 in assay [1] (setting [5]) was 19 nM; in assay [1] (setting [6]), 19 nM; in assay [1] (setting [7]), below 40 nM. Also, in assay [2] (20 μM, 72 h, HEK 293), the “% HEK 293 Inhibition at 20 μM” value is given as “N/A (N/A is an IC50 value > 20 μM)”. Also, the “SI (selectivity index)” value in assay [2] is above 1052.

In the case of `COc1cccc(C(=N)Nc2cc(C(=O)Nc3cc(C(=O)Nc4cc(C(=O)NCCCN(C)C)n(C)c4)n(C(C)C)c3)n(C)c2)c1` [Compound 7, N-[5-({[5-({[3-(Dimethylamino)propyl]amino}carbonyl)-1-methyl-1H-pyrrol-3-yl]amino}carbonyl)-1-isopropyl-1H-pyrrol-3-yl]-4-{[imino(3-methoxyphenyl)methyl]amino}-1-methyl-1H-pyrrole-2-carboxamide], in assay [1] (setting [5]), the IC50 worked out at 27000 nM.

`CN(C)c1ccc(/C=C/c2ccc(C(=O)Nc3cc(C(=O)Nc4cc(C(=O)NCCN5CCOCC5)n(C)c4)n(C)c3)cn2)cc1` [Compound 32, 6-{(E)-2-[4-(Dimethylamino)phenyl]ethenyl}-N-[1-methyl-5-({[1-methyl-5-({[2-(4-morpholinyl)ethyl]amino}carbonyl)-1H-pyrrol-3-yl]amino}carbonyl)-1H-pyrrol-3-yl]nicotinamide]: the IC50 in assay [1] (setting [5]) is 170 nM. Besides, in assay [4], the “Intracellular localisation in the trypanosome” value was “localisation to the nucleic acid rich regions of the nucleus and kinetoplast”.

On to `CN(C)CCCNC(=O)c1cc(NC(=O)c2cc(NC(=O)c3cc4ccccc4cn3)cn2C)cn1C` [Compound 15, N-[5-({[5-({[3-(Dimethylamino)propyl]amino}carbonyl)-1-methyl-1H-pyrrol-3-yl]amino}carbonyl)-1-methyl-1H-pyrrol-3-yl]-3-isoquinolinecarboxamide], for which the IC50 in assay [1] (setting [5]) was determined as 2200 nM; in assay [1] (Trypanosoma brucei, Table S2 (supplement), T. b. brucei activity, read-out: IC50), 970 nM.

Take “4-(Formylamino)-1-methyl-N-[1-methyl-5-({[1-methyl-5-({[2-(4-morpholinyl)ethyl]amino}carbonyl)-1H-pyrrol-3-yl]amino}carbonyl)-1H-pyrrol-3-yl]-1H-pyrrole-2-carboxamide [Compound 4]”: in assay [1] (Table 1, Alamar Blue, 48 h + 24 h, all standard deviations less than 2%, read-out: IC50 against Trypanosoma brucei brucei), the IC50 was found to be 48000 nM.
